Laboratory results from article PMC12249509, “Quinazoline Derivative kzl052 Suppresses Prostate Cancer by Targeting WRN Helicase to Stabilize DNA Replication Forks” (International Journal of Molecular Sciences, 2025).

How the values were obtained:
WRN-silenced PC3 cells = assay: MTT assay in WRN-silenced PC3 cells; format: cell-based, human; conditions: shWRN lentiviral transfection
Description: Human prostate cancer cell lines PC3 and LNCaP cells were stored in the Biology Laboratory of the Natural Products Research Center of Guizhou Province (Guiyang, China). Cells were cultured in DMEM supplemented with 10% fetal bovine serum (BI, Nahariya, Israel) and 1% penicillin and streptomycin (Solarbio, Beijing, China) and incubated at 37 °C under 5% CO2, 95% air, and 95% humidity. The pLV-shWRN-GFP-Puro and blank control plasmids were constructed by Chongqing UNIBIO Biotechnology Co., Ltd. (Chongqing, China). The transfection steps were based on previous published studies. The inhibitory effect of the WRN protein in PC3 cells was detected by a Western blot assay.
Cell suspensions were prepared in a logarithmic growth phase and seeded in 96-well plates at a density of 5000–8000 cells/well for 12 h and treated with different concentrations of kzl052 for 48 h. A 5 mg/mL MTT dye solution (Solarbio, Beijing, China) was added to all cells at 37 °C for 4 h. Then DMSO was added after removing the supernatant, and the crystals were completely dissolved by shaking at 37 °C for 15 min. The absorbance was measured at 490 nm by a microplate reader (Gene, HongKong, China). […]

[1] = test system: PARP1, Bax, PLK1, RB1, Bcl-2, SRC, PTEN, PCNA, RPA, FEN1, Mre11; assay: Western blot of apoptosis, RB signal and replication fork proteins; format: cell-based
Description: The cells treated by kzl052 were collected, washed by precooled PBS, and removed by centrifugation at 1000 g/5 min. A RIPA lysate (Solarbio, Beijing, China) was added for 30 min on ice. The protein concentration was determined by a BCA kit (Solarbio, Beijing, China) and denatured at 105 °C. The target proteins were isolated by SDS-PAGE gel electrophoresis and transferred to the PVDF membrane (Millipore, Bedford, MA, USA). A 5% BSA was added to block for 2 h. Primary antibodies (PNCA, RPA, FEN1, Mre11, PARP1, Bax, Bcl-2, PLK1, RB1, SRC, and PTEN; 1:1000 dilution, HUBIO, Hangzhou, China) were added and incubated at 4 °C overnight. The next day, the PVDF membrane with target proteins were washed by TBST and incubated with an HRP-labeled IgG secondary antibody (1:100,000 dilution, HUBIO, Hangzhou, China) for 2 h. After TBST washed, the target proteins were isolated and analyzed by a chemiluminescence instrument (BioRad, Hercules, CA, USA).

PC3 cells [2] = assay: γ-H2A.X immunofluorescence (DNA damage), PC3; format: cell-based, human; conditions: 100 nM, 24 h
Description: (§1) Cell slides were prepared and treated with 100nM kzl052 for 24 h. A 4% PFA was added for fixation after PBS washing, and then the cells were treated with Triton X-100 (Sigma-Aldrich, Saint Louis, MO, USA) for 30 min. The cells were blocked with 4% BSA for 2 h and incubated overnight at 4 °C with a γ-H2A.X primary antibody (1:1000, CST, Boston, MA, USA). A fluorescent secondary antibody (1:50; CST) was added and incubated in the dark for 2 h. After washing with PBS, a 10 μg/mL DAPI staining solution was added and treated the cells for 5–10 min. The expression and localization of γ-H2A.X was detected by inverted fluorescence microscopy (Leica, Wetzlar, Germany).

[3] = test system: normal human renal epithelial cells HK2; assay: MTT normal cytotoxicity, HK2; format: cell-based; conditions: Epithelial cell, mean ± SD, n = 3
Description: (§2) Cell suspensions were prepared in a logarithmic growth phase and seeded in 96-well plates at a density of 5000–8000 cells/well for 12 h and treated with different concentrations of kzl052 for 48 h. A 5 mg/mL MTT dye solution (Solarbio, Beijing, China) was added to all cells at 37 °C for 4 h. Then DMSO was added after removing the supernatant, and the crystals were completely dissolved by shaking at 37 °C for 15 min. The absorbance was measured at 490 nm by a microplate reader (Gene, HongKong, China). The cell proliferation inhibition rate was calculated according to the following formula: (1-experimental group OD/control group OD) × 100% with DMSO as a negative control and the WRN inhibitor (NSC 617145, GLPBIO, Montclair, CA, USA) as a positive control.

PC3 cells [4] = assay: PC3 xenograft in BALB/c-null mice; format: in vivo; conditions: 5 mg/kg intraperitoneally
Description: Male BALB/c-null mice (4 weeks and 18–20 g) were purchased from SiPeiFu Biotechnology Co., Ltd. (Beijing, China). All SPF-grade mice were fed in the animal room with an IVC system barrier environment (Natural Products Research Center of Guizhou Province). The ambient temperature was maintained at 22 ± 2 °C, the humidity was 40–60%, and the light–dark cycle was maintained for 12 h to simulate the normal external environment. The mice took food and water autonomously. Xenografts were performed by subcutaneously implanting PC3 cells (1 × 10^7/0.1 mL). When the tumor size was 100 mm^3, the mice were randomly divided into 2 groups (N = 8). One group was intraperitoneally injected with kzl052 (5 mg/kg), and the other group was given the same dose of the solvent. The body weight and tumor volume was recorded every two days. The tumor volume (mm^3) = 0.5 × long diameter × short diameter^2. At the end of the experiment, the mice were euthanized and dissected to measure the weight of tumor tissue, heart, liver, spleen, kidney, and lung.
The tumor tissue sections were placed sequentially in xylene I/10 min; xylene II/10 min; absolute ethanol I/5 min; absolute ethanol II/5 min; 95% ethanol/5 min; 90% ethanol/5 min; 80% ethanol/5 min; and 70% ethanol/5 min. Then the sections were treated in a hematoxylin staining solution (Solarbio, Beijing, China) for 3–5 min. The slices were treated by 1% hydrochloric acid alcohol for 5–10 s. The sections were treated in an eosin staining solution (Solarbio, Beijing, China) for 1–3 min. Next, the slices were dehydrated with 95% ethanol/5 min; anhydrous ethanol I/5 min; anhydrous ethanol/5 min; xylene I/5 min; and xylene II/5 min. Finally, the sections were sealed with a neutral gum (Solarbio, Beijing, China). The H&E staining results were photographed and analyzed under light microscopes (Leica, Wetzlar, Germany).
The tissue sections were roasted, dewaxed, hydrated, antigen repaired, blocked, and incubated with a polyclonal antibody (PNCA, RPA, Mre11, PARP1, and RB1 at a 1:50 dilution, HUBIO, and γ-H2A.X at a 1:50 dilution, CST) at 4 °C overnight. The HRP-labeled IgG secondary antibody (1:1000 dilution, HUBIO, Hangzhou, China) was incubated at 37 °C for 2 h, stained with DAB, and then stained with hematoxylin (Solarbio, Beijing, China) and sealed with a neutral rubber (Solarbio, Beijing, China). It was also observed and photographed under a microscope (Leica, Wetzlar, Germany). The immunohistochemical results were statistically analyzed using image Pro plus (V6.0) software.

WRN protein [5] = molecular target: T1, WRN protein (Homo sapiens, UniProt Q14191); assay: Cellular thermal shift assay (CETSA); format: binding; conditions: PC3 cells, 100 nM, 2 h
T1 construct: endogenous in cells; host or cells: PC3
Description: PC3 cells were cultured and treated with 100 nM kzl052 for 2 h. The cells were collected into 1.5 mL EP tubes, treated with a metal bath at different temperatures (43 °C, 46 °C, 49 °C, 52 °C, and 55 °C) for 3 min, and balanced for 2 min at room temperature. The supernatant was collected by centrifugation after three cycles of liquid nitrogen in a 37 °C water bath, and then a SDS-loading buffer and denatured protein was added at 100 °C for 10 min. Finally, the content of the binding of the WRN protein was detected by Western blot.

LNCaP cells [6] = assay: Bright field and Hoechst staining, LNCaP; format: cell-based, human; conditions: 24 h
Description: (§3) PC3 and LNCaP cells were cultured and treated with different concentrations of kzl052 for 24 h and then 5 μg/mL of a Hoechst 33258 dye solution (Solarbio, Beijing, China) was added for 5–10 min after PBS washing. The fluorescence microscope (Leica, Wetzlar, Germany) was used for photo observation.

LNCaP cells [7] = assay: MTT assay, LNCaP cell growth; format: cell-based; conditions: Homo sapiens, 24 h (Figure 1 legend), 48 h (method)
Description: as §2

PC3 cells [8] = assay: Bright field and Hoechst staining, PC3; format: cell-based, human; conditions: 24 h
Description: as §3

WRN protein [9] = assay: Western blot of WRN protein level; format: cell-based; conditions: 24 h
WRN helicase = molecular target: T2, WRN helicase (Homo sapiens, UniProt Q14191); assay: WRN-unwinding assay (WRN enzyme activity test); format: biochemical; conditions: Figure S2
T2 construct: ICE Bioscience Inc (Beijing, China)
Description: NSC617145 in WRN FI as s ay KZL -05 2 in WR N FI as s ay
Figure S2.The results of WRN-unwinding assay. WRN enzyme activity test were
performed by ICE Bioscience Inc (Beijing, China).

PC3 cells [10] = assay: MTT assay, PC3 cell growth; format: cell-based; conditions: Homo sapiens, PC-3, 24 h (Figure 1 legend), 48 h (method)
Description: as §2

LNCaP cells [11] = assay: γ-H2A.X immunofluorescence (DNA damage), LNCaP; format: cell-based, human; conditions: 100 nM, 24 h
Description: as §1

[12] = test system: normal human liver cells LX2; assay: MTT normal cytotoxicity, LX2; format: cell-based; conditions: mean ± SD, n = 3
Description: as §2

[13] = Acute toxicity assay in BALB/c mice; format: in vivo; conditions: mouse, in vivo; within 24 h, male BALB/c mice, one-time treatment
Description: (§4) The toxicity of kzl052 in vivo was tested by an acute toxicity analysis in male BALB/c mice. A total of 20 mice were divided into 5 groups randomly. Each group was given a one-time treatment of kzl052 concentrations at 0 mg/kg, 50 mg/kg, 100 mg/kg, 200 mg/kg, and 500 mg/kg. The survival or death status of mice within 24 h was observed and recorded. The survival and death rate of mice were calculated.

BALB/c mice = assay: Acute toxicity assay in BALB/c mice; format: in vivo; conditions: 24 h; for Death Number / Survival Number: 4 mice
Description: as §4

T2 sequence (Q14191 whole entry): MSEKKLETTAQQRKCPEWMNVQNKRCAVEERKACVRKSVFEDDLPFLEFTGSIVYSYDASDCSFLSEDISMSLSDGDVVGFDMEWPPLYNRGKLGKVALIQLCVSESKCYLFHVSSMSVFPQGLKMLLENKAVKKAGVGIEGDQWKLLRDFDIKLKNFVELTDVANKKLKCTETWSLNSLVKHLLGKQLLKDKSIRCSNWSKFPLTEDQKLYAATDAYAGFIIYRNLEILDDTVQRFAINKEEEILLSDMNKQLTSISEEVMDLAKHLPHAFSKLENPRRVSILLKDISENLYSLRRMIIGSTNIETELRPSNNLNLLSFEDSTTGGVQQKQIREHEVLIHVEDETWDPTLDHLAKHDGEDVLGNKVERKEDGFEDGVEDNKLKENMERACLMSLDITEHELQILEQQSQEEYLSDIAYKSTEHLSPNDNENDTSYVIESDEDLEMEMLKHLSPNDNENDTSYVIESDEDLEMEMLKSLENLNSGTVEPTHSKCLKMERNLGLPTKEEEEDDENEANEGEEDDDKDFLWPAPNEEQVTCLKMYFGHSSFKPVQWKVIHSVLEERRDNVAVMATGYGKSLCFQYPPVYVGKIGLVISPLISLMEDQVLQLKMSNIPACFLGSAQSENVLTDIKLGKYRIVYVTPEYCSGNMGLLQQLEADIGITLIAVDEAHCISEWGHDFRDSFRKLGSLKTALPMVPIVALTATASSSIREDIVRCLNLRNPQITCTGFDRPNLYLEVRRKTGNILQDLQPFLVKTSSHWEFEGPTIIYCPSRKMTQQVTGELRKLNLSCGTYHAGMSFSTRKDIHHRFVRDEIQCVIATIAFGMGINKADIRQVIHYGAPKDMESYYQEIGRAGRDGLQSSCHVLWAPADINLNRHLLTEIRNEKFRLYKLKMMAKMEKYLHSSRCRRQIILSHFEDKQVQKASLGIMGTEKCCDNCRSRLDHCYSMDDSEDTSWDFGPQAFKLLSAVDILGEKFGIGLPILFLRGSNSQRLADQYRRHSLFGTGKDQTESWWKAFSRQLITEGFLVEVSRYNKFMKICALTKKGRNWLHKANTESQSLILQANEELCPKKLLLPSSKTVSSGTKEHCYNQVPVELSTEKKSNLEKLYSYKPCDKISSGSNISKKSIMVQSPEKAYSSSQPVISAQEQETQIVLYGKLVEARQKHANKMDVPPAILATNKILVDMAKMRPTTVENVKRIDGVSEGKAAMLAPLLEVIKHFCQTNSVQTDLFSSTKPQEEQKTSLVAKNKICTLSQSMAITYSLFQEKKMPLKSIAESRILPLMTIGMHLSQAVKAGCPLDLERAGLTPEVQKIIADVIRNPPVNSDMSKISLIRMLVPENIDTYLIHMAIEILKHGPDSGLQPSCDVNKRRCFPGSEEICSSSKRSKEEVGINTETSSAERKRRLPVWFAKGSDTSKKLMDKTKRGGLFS
T1 sequence (Q14191 whole entry): as above

Q: Which results are given for `Cc1ccc2nc(C(F)(F)F)nc(N(C)c3ccc(OC(F)F)cc3)c2c1` [kzl052]?
A: sensitivity of WRN-silenced PC3 cells (WRN-silenced PC3 cells): more insensitive; expression of PARP1, Bax, PLK1, and RB1 [1]: significantly up-regulated; expression of PCNA, RPA, and FEN1 [1]: significantly inhibited; protein level of Mre11 [1]: up-regulated; protein levels of Bcl-2, SRC, and PTEN [1]: inhibited; γ-H2A.X staining, PC3 (PC3 cells [2]): significantly increased; IC50 [3]: 0.92 ± 0.24 µM; H&E staining compared with the control group (PC3 cells [4]): no significant difference; effects on mouse body weight and internal organ morphology (PC3 cells [4]): minimal effects; growth of PC3 cells in vivo (tumor volume, tumor quality) (PC3 cells [4]; PC3 xenograft): significantly inhibited; DNA replication fork complexes in tumor tissues (immunohistochemistry) (PC3 cells [4]; γ-H2A.X, PARP1, RB1, PCNA, RPA, Mre11): promoted the instability of DNA replication fork complexes; binding to WRN protein (CETSA) (WRN protein [5]): bound to the WRN protein; cell death, LNCaP (LNCaP cells [6]): promoted PC3 and LNCaP cell death; IC50 (LNCaP cells [7]): 0.11 ± 0.01 µM; cell death, PC3 (PC3 cells [8]): promoted PC3 and LNCaP cell death; WRN protein expression (WRN protein [9]): significantly inhibited; effect on activity of WRN helicase (WRN helicase): did not affect the activity of WRN helicase; IC50 (PC3 cells [10]): 0.39 ± 0.01 µM; γ-H2A.X staining, LNCaP (LNCaP cells [11]): significantly increased; IC50 [12]: 3.12 ± 0.09 µM; LD50 at 24 h [13]: 200 to 500 mg/kg; Mortality Rate (BALB/c mice; 50 mg/kg): 0%; Survival Rate (BALB/c mice; 50 mg/kg): 100%; Death Number (BALB/c mice; 50 mg/kg): 0; Survival Number (BALB/c mice; 50 mg/kg): 4; Mortality Rate (BALB/c mice; 100 mg/kg): 0%; Survival Rate (BALB/c mice; 100 mg/kg): 100%; Death Number (BALB/c mice; 100 mg/kg): 0; Survival Number (BALB/c mice; 100 mg/kg): 4; Mortality Rate (BALB/c mice; 200 mg/kg): 0%; Survival Rate (BALB/c mice; 200 mg/kg): 100%; Death Number (BALB/c mice; 200 mg/kg): 0; Survival Number (BALB/c mice; 200 mg/kg): 4; Mortality Rate (BALB/c mice; 500 mg/kg): 75%; Survival Rate (BALB/c mice; 500 mg/kg): 25%; Death Number (BALB/c mice; 500 mg/kg): 3; Survival Number (BALB/c mice; 500 mg/kg): 1

Q: For `CC(=O)O[C@@]12CO[C@@H]1C[C@H](O)[C@@]1(C)C(=O)[C@H](O)C3=C(C)[C@@H](OC(=O)[C@H](O)[C@@H](NC(=O)OC(C)(C)C)c4ccccc4)C[C@@](O)([C@@H](OC(=O)c4ccccc4)[C@H]21)C3(C)C` [Docetaxel, reference compound], which IC50 [3] is on record?
A: 0.11 ± 0.01 µM

Q: And the IC50 [12]?
A: 0.41 ± 0.11 µM

Q: Which IC50 [12] does the source give for `CC(C)(CN1C(=O)C(Cl)=C(Cl)C1=O)CN1C(=O)C(Cl)=C(Cl)C1=O` [NSC 617145] here?
A: 1.81 ± 0.27 µM
